The values that follow come from ChEMBL document CHEMBL3217422, “Design of membrane targeting tobramycin-based cationic amphiphiles with reduced hemolytic activity” (Medchemcomm, 2013).

Structures are written as SMILES. Values after ≈ are worked out from the molar mass of the structure shown. Where only a bound is given, the exact number is not on record here.

Series [1] in a line: Induction of hemolysis in rat RBC assessed as hemoglobin release at 32 to 128 ug/ml after 1 hr by microplate reader analysis. Type of series: cell-based. Conditions: erythrocyte.
Series [2] deals with Staphylococcus epidermidis. The series is described as follows: Antibacterial activity against Staphylococcus epidermidis ATCC 35984 assessed as biofilm growth inhibition after 24 hrs by double dilution method. The format is functional.
In series [3] the test system is Streptococcus mutans. The series is described as follows: Antibacterial activity against Streptococcus mutans UA159 assessed as biofilm growth inhibition after 24 hrs by double dilution method. Type of series: functional.
The subject of series [4] is Shigella sonnei. The series is described as follows: Antibacterial activity against O-antigen negative Shigella sonnei clinical isolate 6831 assessed as growth inhibition after 24 hrs by double dilution method. The format is functional. Conditions: isolate 6831, 24 h.
For series [5], the system named is Shigella sonnei. The series is described as follows: Antibacterial activity against O-antigen positive Shigella sonnei clinical isolate 6831 assessed as growth inhibition after 24 hrs by double dilution method. The format is functional. Conditions: isolate 6831, 24 h.
For a further series, the system named is Pseudomonas aeruginosa. The series is described as follows: Antibacterial activity against Pseudomonas aeruginosa ATCC 33347 assessed as growth inhibition after 24 hrs by double dilution method. Type of series: functional. Conditions: ATCC 33347, 24 h.
Series [6] deals with Staphylococcus epidermidis. The series is described as follows: Antibacterial activity against Staphylococcus epidermidis ATCC 12228 assessed as growth inhibition after 24 hrs by double dilution method. The format is functional. Conditions: ATCC 12228, 24 h.
The subject of series [7] is Staphylococcus epidermidis. The series is described as follows: Antibacterial activity against Staphylococcus epidermidis ATCC 35984 assessed as growth inhibition after 24 hrs by double dilution method. The format is functional. Conditions: ATCC 35984, 24 h.
The test system of series [8] is Staphylococcus aureus. The series is described as follows: Antibacterial activity against Staphylococcus aureus ATCC 9144 assessed as growth inhibition after 24 hrs by double dilution method. Conditions: ATCC 9144, 24 h. Type of series: functional.
Another series concerns Enterococcus faecalis. The series is described as follows: Antibacterial activity against Enterococcus faecalis ATCC 29212 assessed as growth inhibition after 24 hrs by double dilution method. Type of series: functional. Conditions: ATCC 29212, 24 h.
The test system of the next series is Enterococcus. The series is described as follows: Antibacterial activity against vancomycin-resistant Enterococcus assessed as growth inhibition after 24 hrs by double dilution method. Type of series: functional.
Series [9] relates to Streptococcus mutans. The series is described as follows: Antibacterial activity against Streptococcus mutans UA159 assessed as growth inhibition after 24 hrs by double dilution method. Conditions: UA159, 24 h. Type of series: functional.
For series [10], the system named is Staphylococcus aureus. The series is described as follows: Antibacterial activity against Methicillin-resistant Staphylococcus aureus assessed as growth inhibition after 24 hrs by double dilution method. The format is functional.
The nature of series [11]: Antibacterial activity against Streptococcus pyogenes serotype M12 strain MGAS9429 assessed as growth inhibition after 24 hrs by double dilution method. The format is functional. Conditions: MGAS9429, 24 h.
Series [12] can be described thus: Induction of hemolysis in rat RBC assessed as hemoglobin release at 128 ug/ml after 1 hr by microplate reader analysis. Type of series: cell-based, Erythrocyte. Conditions: red blood cells, read-out: Activity.
A short description of series [13]: Induction of hemolysis in rat RBC assessed as hemoglobin release at 64 ug/ml after 1 hr by microplate reader analysis. The format is cell-based, Erythrocyte. Conditions: red blood cells, read-out: Activity.

In the case of `CCCCCCCCCCCCS(=O)(=O)C[C@H]1O[C@H](O[C@@H]2[C@@H](O)[C@H](O[C@H]3O[C@H](CN)[C@@H](O)C[C@H]3N)[C@@H](N)C[C@H]2N)[C@H](O)[C@@H](N)[C@@H]1O`, the Activity entry in series [1] is listed as “Toxic”. In addition, the figures for the MBIC (in series [2]; in the series on Streptococcus mutans [3]) were 32 µg/mL and 16 µg/mL, respectively. Moreover, the minimum inhibitory concentration (MIC) was over 128 µg/mL in the series on Shigella sonnei [4]; over 128 µg/mL with Shigella sonnei [5]; over 128 µg/mL in the series on Pseudomonas aeruginosa; 128 µg/mL (≈ 187 µM) in series [6]; 64 µg/mL (≈ 93.6 µM) in [7]; 64 µg/mL (≈ 93.6 µM) in the series with Staphylococcus aureus [8]. For the same compound, the minimal inhibitory concentration (MIC) was over 128 µg/mL in the series on Enterococcus faecalis; 64 µg/mL (≈ 93.6 µM) in the series on Enterococcus; 16 µg/mL (≈ 23.4 µM) in the series on Streptococcus mutans [9]; over 128 µg/mL in the series with Staphylococcus aureus [10]; 32 µg/mL (≈ 46.8 µM) in [11].
Turning to `CCCCCCCCCCCCc1cn(C[C@H]2O[C@H](O[C@@H]3[C@@H](O)[C@H](O[C@H]4O[C@H](CN)[C@@H](O)C[C@H]4N)[C@@H](N)C[C@H]3N)[C@H](O)[C@@H](N)[C@@H]2O)nn1`, the hemolysis at 1 h, 128 ug/ml in series [12] is 89.1%. Moreover, the hemolysis at 1 h, 64 ug/ml in series [13] came to 26.3%. Besides, the MBIC in series [2] turned out to be 16 µg/mL; in the series with Streptococcus mutans [3] it was 4 µg/mL. The MIC turned out to be 64 µg/mL (≈ 93.2 µM) in the series on Shigella sonnei [4]; 64 µg/mL (≈ 93.2 µM) in the series with Shigella sonnei [5]; 64 µg/mL (≈ 93.2 µM) with Pseudomonas aeruginosa; 16 µg/mL (≈ 23.3 µM) in series [6]; 8 µg/mL (≈ 11.6 µM) in [7]; 16 µg/mL (≈ 23.3 µM) with Staphylococcus aureus [8]. Moreover, the MIC in the series with Enterococcus faecalis was found to be 128 µg/mL (≈ 186 µM); in the series on Enterococcus, 32 µg/mL (≈ 46.6 µM); in the series with Streptococcus mutans [9], 4 µg/mL (≈ 5.82 µM); with Staphylococcus aureus [10], 128 µg/mL (≈ 186 µM); in series [11] it was 8 µg/mL (≈ 11.6 µM).
